{"source": "patent US9107816B2", "about": "“Implantable device for controlled dissolution and diffusion of low solubility drug” (TARIS BIOMEDICAL LLC, priority 2011, dated 2015)", "assay": "In vitro release of mitomycin C from housing module (100% MMC tablets)", "format": "physicochemical", "settings": "100% MMC tablet, one face exposed, 20 mL deionized water at 37° C., replenished daily, 8 days, n=3, FIG. 43", "protocol": "The diameter of the tablets was either 2.1 mm or 2.6 mm with the height of 2 mm. The mass of the tablet was approximately 10 mg for 2.1 mm diameter tablet and 16 mg for 2.6 mm diameter tablet.\nHousing modules were made from segments of silicone tube and silicone adhesive. […] The surface ‘b’ of tablet 402 was surrounded by silicone tube 406 and the surface ‘c’ was in contact with silicone adhesive 408.\nSpecifically, the housing module 400 was submerged in 20 mL deionized water at 37° C., with the release medium being entirely replenished daily during the test period. The cumulative release of MMC was measure over the test period. In vitro release data is shown in FIG. 43 (n=3; the error bars indicate S.D. around the mean.) (Some error bars are not shown, i.e., when they are smaller than the symbols.)."}
{"smiles": "CO[C@@]12[C@H](COC(N)=O)C3=C(C(=O)C(C)=C(N)C3=O)N1C[C@@H]1N[C@@H]12", "note": "[MMC, mitomycin C]", "values": [{"measurement": "cumulative release of MMC (release kinetics)", "value": "near zero order release was achieved until the tablet was all eroded"}]}
